Values of other authors, collected in EP0097942A1, “Antiallergic pyrazine-bis(2-oxoglycine) compounds” (THE DOW CHEMICAL COMPANY, priority 1982, dated 1984).
Where two headings read alike, the source gives them in different places.

Tested on: PCA reactions
Conditions: general statement on reference drug

O=C(O)c1cc(=O)c2c(OCC(O)COc3cccc4oc(C(=O)O)cc(=O)c34)cccc2o1 [Disodium cromoglycate]
activity in PCA test (administered i.p.): active
activity in PCA test (administered orally): not orally
